Starred links: 1 amine or outer side, 2 acyl side, 3 side chain; linkers in the order of their positions; H or OH if unused. Non-standard residues stand in square brackets, D forms with d. Residues, ends and D or L forms follow the SMILES beside them. Groups on a side chain read outwards from the residue. *: point of attachment. C20 diacid = O=C(O)CCCCCCCCCCCCCCCCCCC(=O)*; αMePhe(2-F) = C[C@](N)(Cc1ccccc1F)C(=O)O; γGlu = O=C(O)[C@H](CCC(=O)[*:2])N[*:1]; αMeL = CC(C)C[C@](C)(N)C(=O)O; AEEA = NCCOCCOCC(=O)O; Aib = CC(C)(N)C(=O)O
Tests used:
Format in all cases: cell-based
[1] = tested on: human primary liver cells; conditions: for Rel. A (Relative Activity) on human primary liver cells: relative to GCG
Outline: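 Human primary hepatocytes, thawed at 37° C and resuspended in HBSS, exposed to compound for 60 min at room temperature. Detection reagent then added for 60 min before cAMP readout.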

Human GIP R = biological target: T1, Human GIP R (Homo sapiens, UniProt P48546); assay: cAMP (HTRF) activity in CHO cells stably overexpressing GIP receptor; conditions: for Human GIP R Rel. A (Relative Activity): EC50 of human GIP / EC50 of compound; for EC50: stable transfected cell cAMP activity, at least 3 independent tests
T1 construct: expressed in transfected cells; host or cells: CHO
T1 sequence (P48546 22-466): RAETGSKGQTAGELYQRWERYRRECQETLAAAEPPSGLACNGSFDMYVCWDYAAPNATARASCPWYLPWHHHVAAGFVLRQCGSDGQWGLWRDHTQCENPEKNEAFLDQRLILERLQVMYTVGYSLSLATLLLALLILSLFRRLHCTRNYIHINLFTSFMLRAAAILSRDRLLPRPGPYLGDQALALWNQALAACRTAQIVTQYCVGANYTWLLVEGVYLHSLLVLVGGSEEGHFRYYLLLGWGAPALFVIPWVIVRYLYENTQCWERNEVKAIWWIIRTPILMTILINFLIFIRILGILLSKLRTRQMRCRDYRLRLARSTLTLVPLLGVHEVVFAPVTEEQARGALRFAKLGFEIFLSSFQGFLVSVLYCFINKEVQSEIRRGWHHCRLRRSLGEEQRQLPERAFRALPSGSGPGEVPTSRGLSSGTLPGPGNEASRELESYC
Outline: (§1)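 Cells in HBSS are exposed to compound for 60 min at room temperature, followed by 60 min with detection reagent. EC50 (nM) is taken from concentration-response curves.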

Human GCG R = biological target: T2, Human GCG R (Homo sapiens, UniProt P47871); assay: cAMP (HTRF) activity in HEK-293 cells stably overexpressing human GCG receptor; conditions: EC50 of human GCG / EC50 of compound
T2 construct: expressed in transfected cells; host or cells: HEK-293
T2 sequence (P47871 26-477): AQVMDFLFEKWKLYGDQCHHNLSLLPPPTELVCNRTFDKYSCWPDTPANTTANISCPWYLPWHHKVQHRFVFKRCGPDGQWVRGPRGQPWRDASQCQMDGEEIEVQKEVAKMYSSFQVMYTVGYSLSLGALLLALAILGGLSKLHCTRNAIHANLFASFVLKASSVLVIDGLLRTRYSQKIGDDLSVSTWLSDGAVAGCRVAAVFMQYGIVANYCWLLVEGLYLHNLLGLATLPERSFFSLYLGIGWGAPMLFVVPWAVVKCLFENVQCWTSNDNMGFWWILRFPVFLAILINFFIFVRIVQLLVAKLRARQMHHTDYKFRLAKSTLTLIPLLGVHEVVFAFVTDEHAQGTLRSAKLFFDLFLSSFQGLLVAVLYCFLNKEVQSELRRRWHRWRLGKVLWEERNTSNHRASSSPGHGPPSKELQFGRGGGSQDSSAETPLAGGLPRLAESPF
Outline: as §1

`CC[C@H](C)[C@H](NC(=O)[C@H](Cc1ccccc1)NC(=O)[C@H](C)NC(=O)C(C)(C)NC(=O)[C@H](CCC(N)=O)NC(=O)[C@H](C)NC(=O)[C@H](CCCCNC(=O)COCCOCCNC(=O)COCCOCCNC(=O)CC[C@H](NC(=O)CCCCCCCCCCCCCCCCCCC(=O)O)C(=O)O)NC(=O)[C@H](CCCCN)NC(=O)[C@H](CC(=O)O)NC(=O)[C@H](CC(C)C)NC(=O)[C@H](Cc1ccccc1)NC(=O)[C@@H](NC(=O)[C@H](CO)NC(=O)[C@H](Cc1ccc(O)cc1)NC(=O)[C@H](CC(=O)O)NC(=O)[C@H](CO)NC(=O)[C@@H](NC(=O)[C@](C)(Cc1ccccc1F)NC(=O)[C@@H](NC(=O)CNC(=O)[C@H](CCC(N)=O)NC(=O)C(C)(C)NC(=O)[C@@H](N)Cc1ccc(O)cc1)[C@@H](C)O)[C@@H](C)O)[C@@H](C)CC)C(=O)N[C@@H](CCC(=O)O)C(=O)N[C@@H](Cc1ccc(O)cc1)C(=O)N[C@@H](CC(C)C)C(=O)N[C@@H](CC(C)C)C(=O)N[C@@H](CCC(=O)O)C(=O)NC(C)(C)C(=O)N[C@@H](Cc1c[nH]cn1)C(=O)N1CCC[C@H]1C(=O)N[C@@H](CO)C(=O)N[C@@H](CO)C(=O)NCC(=O)N[C@@H](C)C(=O)N1CCC[C@H]1C(=O)N1CCC[C@H]1C(=O)N1CCC[C@H]1C(=O)N[C@@H](CO)C(N)=O` [Compound 18] was tested, and the EC50 [1] was 622 pM, the “Rel. A (Relative Activity) on human primary liver cells” value [1] was 625.56% and the “Human GIP R Rel. A (Relative Activity)” value (Human GIP R) was 861.90%. The EC50 (Human GIP R) was 21 pM.

`CC[C@H](C)[C@H](NC(=O)[C@H](Cc1ccccc1)NC(=O)[C@H](C)NC(=O)C(C)(C)NC(=O)[C@H](CCC(N)=O)NC(=O)[C@H](C)NC(=O)[C@H](CCCCNC(=O)COCCOCCNC(=O)COCCOCCNC(=O)CC[C@H](NC(=O)CCCCCCCCCCCCCCCCCCC(=O)O)C(=O)O)NC(=O)[C@H](CCCCN)NC(=O)[C@H](CC(=O)O)NC(=O)[C@H](CC(C)C)NC(=O)[C@](C)(CC(C)C)NC(=O)[C@@H](NC(=O)[C@H](CO)NC(=O)[C@H](Cc1ccc(O)cc1)NC(=O)[C@H](CC(=O)O)NC(=O)[C@H](CO)NC(=O)[C@@H](NC(=O)[C@](C)(Cc1ccccc1F)NC(=O)[C@@H](NC(=O)CNC(=O)[C@H](CCC(N)=O)NC(=O)C(C)(C)NC(=O)[C@@H](N)Cc1ccc(O)cc1)[C@@H](C)O)[C@@H](C)O)[C@@H](C)CC)C(=O)N[C@@H](CCC(=O)O)C(=O)N[C@@H](Cc1ccccc1)C(=O)N[C@@H](CC(C)C)C(=O)N[C@@H](CC(C)C)C(=O)N[C@@H](CCC(=O)O)C(=O)N[C@H](C(=O)NCC(=O)N1CCC[C@H]1C(=O)N[C@@H](CO)C(=O)N[C@@H](CO)C(=O)NC(C)(C)C(=O)N[C@@H](Cc1c[nH]cn1)C(=O)N1CCC[C@H]1C(=O)N1CCC[C@H]1C(=O)N1CCC[C@H]1C(=O)N[C@@H](CO)C(N)=O)[C@@H](C)O` [Compound 38] (H-Y[Aib]QGT[αMePhe(2-F)]TSDYSI[αMeL]LDKK([AEEA-AEEA-γGlu-C20 diacid])AQ[Aib]AFIEFLLETGPSS[Aib]HPPPS-NH2; N-terminus assumed) was tested, and the EC50 [1] was 899 pM, the “Rel. A (Relative Activity) on human primary liver cells” value [1] was 432.81% and the “Human GCG R Rel. A (Relative Activity)” value (Human GCG R) was 83.82%. The “Human GIP R Rel. A (Relative Activity)” value (Human GIP R) was 1392.31% and the EC50 (Human GIP R) was 13 pM.

From patent US20250129135A1, “Multi-Agonist and Use Thereof” (priority 2021, published 2025)
